The assay deals with C-Raf FL (full length CRAF with Y340E and Y341E activating mutations, co-expressed with h14-3-3 zeta) (Homo sapiens (Human), UniProt P04049, Y340E/Y341E). Nature of the assay: In vitro Raf activity determination, AlphaScreen p-MEK readout, c-Raf (C-Raf FL). It counts as biochemical. To be noted: c-Raf approximately 4 nM, ATP 1 μM, pre-incubation 60 minutes, reaction 1 hour. In short, it runs like this:
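Full-length C-Raf (~4 nM) pre-incubated 60 min at room temperature with compound and kinase-dead biotinylated MEK1 (~10 nM) in Tris pH 7.5, 15 mM MgCl2, BSA, DTT. Reaction started with 1 μM ATP and run 1 h at room temperature. Phospho-MEK detected by AlphaScreen with anti-p-MEK antibody.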

Sequence of C-Raf FL (full length CRAF with Y340E and Y341E activating mutations, co-expressed with h14-3-3 zeta) (P04049 whole entry Y340E/Y341E): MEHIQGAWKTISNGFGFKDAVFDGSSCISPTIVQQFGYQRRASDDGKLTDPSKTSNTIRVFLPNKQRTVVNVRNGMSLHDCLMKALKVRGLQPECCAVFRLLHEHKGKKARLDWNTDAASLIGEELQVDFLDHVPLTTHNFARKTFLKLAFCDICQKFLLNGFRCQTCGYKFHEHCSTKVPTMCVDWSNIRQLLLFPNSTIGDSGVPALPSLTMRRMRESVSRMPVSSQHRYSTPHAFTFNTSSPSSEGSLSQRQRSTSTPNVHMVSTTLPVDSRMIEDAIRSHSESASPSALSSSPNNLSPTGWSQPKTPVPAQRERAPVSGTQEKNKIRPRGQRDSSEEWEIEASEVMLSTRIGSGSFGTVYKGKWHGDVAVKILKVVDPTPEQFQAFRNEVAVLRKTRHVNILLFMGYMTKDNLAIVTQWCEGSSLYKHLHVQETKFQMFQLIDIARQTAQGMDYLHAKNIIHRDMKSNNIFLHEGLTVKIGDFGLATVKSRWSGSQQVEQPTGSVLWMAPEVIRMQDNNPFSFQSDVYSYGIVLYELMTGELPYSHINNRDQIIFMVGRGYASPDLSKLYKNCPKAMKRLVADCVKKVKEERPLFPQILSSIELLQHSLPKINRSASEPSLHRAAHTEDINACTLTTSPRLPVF
Sequence of C-Raf FL (full length CRAF with Y340E and Y341E activating mutations, co-expressed with h14-3-3 zeta) (P63104 whole entry partner): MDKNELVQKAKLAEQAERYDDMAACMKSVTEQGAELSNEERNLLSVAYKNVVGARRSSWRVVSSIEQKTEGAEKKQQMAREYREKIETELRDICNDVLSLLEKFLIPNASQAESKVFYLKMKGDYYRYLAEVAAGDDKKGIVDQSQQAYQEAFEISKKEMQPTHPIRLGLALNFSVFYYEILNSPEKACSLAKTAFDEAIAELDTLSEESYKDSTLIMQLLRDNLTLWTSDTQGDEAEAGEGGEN

Molecule `Cc1ncc(NC(=O)c2cccc(C(F)(F)F)c2)cc1-c1cnc2c(c1)N1CCOC[C@@H]1C[C@@H]2O` [Example 106, N-(5-((4aS,6S)-6-Hydroxy-1,2,4,4a,5,6-hexahydro-[1,4]oxazino[4,3-a][1,5]naphthyridin-9-yl)-6-methylpyridin-3-yl)-3-(trifluoromethyl)benzamide] registered an IC50 of 0.012 nM.
In turn, `Cc1ccc(NC(=O)c2ccnc(C(C)(F)F)c2)cc1-c1cnc2c(c1)N1CCOC[C@H]1C[C@H]2O` [Example 108, 2-(1,1-Difluoroethyl)-N-(3-((4aR,6R)-6-hydroxy-1,2,4,4a,5,6-hexahydro-[1,4]oxazino[4,3-a][1,5]naphthyridin-n-9-yl)-4-methylphenyl)isonicotinamide] had an IC50 of 0.013 nM.
Turning to `Cc1ccc(NC(=O)c2ccnc(C(C)(F)F)c2)cc1-c1cnc2c(c1)N1CCOC[C@@H]1C[C@@H]2O` [Example 109, 2-(1,1-difluoroethyl)-N-(3-((4aS,6S)-6-hydroxy-1,2,4,4a,5,6-hexahydro-[1,4]oxazino[4,3-a][1,5]naphthyridin-n-9-yl)-4-methylphenyl)isonicotinamide], half-maximal inhibition (IC50) required 0.0057 nM.
In the case of `Cc1ccc(NC(=O)c2ccnc(C(C)(F)F)c2)cc1-c1cnc2c(c1)N1CCOC[C@H]1[C@H](CO)C2` [Example 117, 2-(1,1-Difluoroethyl)-N-(3-((4aR,5R)-5-(hydroxymethyl)-1,2,4,4a,5,6-hexahydro-[1,4]oxazino[4,3-a][1,5]naphthyridin-9-yl)-4-methylphenyl)isonicotinamide], the midpoint of inhibition, the IC50, lay at 0.0047 nM.
For `Cc1ccc(NC(=O)c2ccnc(C(C)(F)F)c2)cc1-c1cnc2c(c1)N1CCOC[C@@H]1[C@@H](CO)C2` [Example 118, 2-(1,1-difluoroethyl)-N-(3-((4aS,5S)-5-(hydroxymethyl)-1,2,4,4a,5,6-hexahydro-[1,4]oxazino[4,3-a][1,5]naphthyridin-9-yl)-4-methylphenyl)isonicotinamide], it took 0.0046 nM to reach half-maximal inhibition (IC50).
With `Cc1ncc(NC(=O)c2cccc(C(F)(F)F)c2)cc1-c1cnc2c(c1)N1CCOC[C@H]1[C@H](CO)C2` [Example 120, N-(5-((4aR,5R)-5-(Hydroxymethyl)-1,2,4,4a,5,6-hexahydro-[1,4]oxazino[4,3-a][1,5]naphthyridin-9-yl)-6-methylpyridin-3-yl)-3-(trifluoromethyl)benzamide] the figure was 0.011 nM; with `Cc1ncc(NC(=O)c2cccc(C(F)(F)F)c2)cc1-c1cnc2c(c1)N1CCOC[C@@H]1[C@@H](CO)C2` [Example 121, N-(5-((4aS,5S)-5-(hydroxymethyl)-1,2,4,4a,5,6-hexahydro-[1,4]oxazino[4,3-a][1,5]naphthyridin-9-yl)-6-methylpyridin-3-yl)-3-(trifluoromethyl)benzamide], 0.0095 nM; with `CCN1C(=O)C[C@@H]2COCCN2c2cc(-c3cc(NC(=O)c4ccnc(C(C)(F)F)c4)ccc3C)cnc21` [Example 126, (R)-2-(1,1-Difluoroethyl)-N-(3-(7-ethyl-6-oxo-1,2,4a,5,6,7-hexahydro-4H-[1,4]oxazino[4,3-d]pyrido[2,3-b][1,4]diazepin-10-yl)-4-methylphenyl)isonicotinamide], 0.016 nM.
In the case of `CCN1C(=O)C[C@H]2COCCN2c2cc(-c3cc(NC(=O)c4ccnc(C(C)(F)F)c4)ccc3C)cnc21` [Example 127, (S)-2-(1,1-difluoroethyl)-N-(3-(7-ethyl-6-oxo-1,2,4a,5,6,7-hexahydro-4H-[1,4]oxazino[4,3-d]pyrido[2,3-b][1,4]diazepin-10-yl)-4-methylphenyl)isonicotinamide] it was 0.048 nM; in that of `CCN1C(=O)C[C@@H]2COCCN2c2cc(-c3cc(NC(=O)c4ccnc(C(F)(F)F)c4)ccc3C)cnc21` [Example 129, (R)-N-(3-(7-Ethyl-6-oxo-1,2,4a,5,6,7-hexahydro-4H-[1,4]oxazino[4,3-d]pyrido[2,3-b][1,4]diazepin-10-yl)-4-methylphenyl)-2-(trifluoromethyl)isonicotinamide], 0.18 nM; in that of `CCN1C(=O)C[C@H]2COCCN2c2cc(-c3cc(NC(=O)c4ccnc(C(F)(F)F)c4)ccc3C)cnc21` [Example 130, (S)-N-(3-(7-ethyl-6-oxo-1,2,4a,5,6,7-hexahydro-4H-[1,4]oxazino[4,3-d]pyrido[2,3-b][1,4]diazepin-10-yl)-4-methylphenyl)-2-(trifluoromethyl)isonicotinamide], 0.37 nM.
As for `Cc1ccc(NC(=O)c2ccnc(C(C)(F)F)c2)cc1-c1cc2c(nn1)OC(C)(C)[C@@H]1COCCN21` [Example 137, (S)-2-(1,1-Difluoroethyl)-N-(3-(6,6-dimethyl-6a,7,9,10-tetrahydro-6H-[1,4]oxazino[4,3-d]pyridazino[3,4-b][1,4]oxazin-2-yl)-4-methylphenyl)isonicotinamide], inhibition was half-maximal at 0.24 nM (IC50).
For the molecule `Cc1ccc(NC(=O)c2ccnc(C(C)(F)F)c2)cc1-c1cc2c(nn1)OC(C)(C)[C@H]1COCCN21` [Example 138, (R)-2-(1,1-Difluoroethyl)-N-(3-(6,6-dimethyl-6a,7,9,10-tetrahydro-6H-[1,4]oxazino[4,3-d]pyridazino[3,4-b][1,4]oxazin-2-yl)-4-methylphenyl)isonicotinamide], the half-inhibitory concentration (IC50) is 0.59 nM.
For `Cc1ccc(NC(=O)c2ccnc(C(C)(C)F)c2)cc1-c1cnc2c(c1)N1CCOC[C@H]1C[C@H]2O` [Example 142, 2-(2-fluoropropan-2-yl)-N-(3-((4aR,6R)-6-hydroxy-1,2,4,4a,5,6-hexahydro-[1,4]oxazino[4,3-a][1,5]naphthyridin-9-yl)-4-methylphenyl)isonicotinamide], the IC50 came out at 0.021 nM.
Turning to `Cc1ccc(NC(=O)c2ccnc(C(C)(C)F)c2)cc1-c1cnc2c(c1)N1CCOC[C@@H]1C[C@@H]2O` [Example 143, 2-(2-fluoropropan-2-yl)-N-(3-((4aS,6S)-6-hydroxy-1,2,4,4a,5,6-hexahydro-[1,4]oxazino[4,3 a][1,5]naphthyridin 9-yl)-4-methylphenyl)isonicotinamide], the half-maximal inhibitory concentration (IC50) turned out to be 0.0088 nM.
In the case of `Cc1ccc(NC(=O)c2cncc(C(F)(F)F)c2)cc1-c1cnc2c(c1)N1CCOC[C@H]1C[C@H]2O` [Example 145, N-(3-((4aR,6R)-6-hydroxy-1,2,4,4a,5,6-hexahydro-[1,4]oxazino[4,3-a][1,5]naphthyridin-9-yl)-4-methylphenyl)-5-(trifluoromethyl)nicotinamide] it was 0.017 nM.
In the case of `Cc1ccc(NC(=O)c2cncc(C(F)(F)F)c2)cc1-c1cnc2c(c1)N1CCOC[C@@H]1C[C@@H]2O` [Example 146, N-(3-((4aS,6S)-6-hydroxy-1,2,4,4a,5,6-hexahydro-[1,4]oxazino[4,3-a][1,5]naphthyridin-9-yl)-4-methylphenyl)-5-(trifluoromethyl)nicotinamide] it was 0.012 nM.
With `Cc1ccc(NC(=O)c2ccnc(C(C)(C)C#N)c2)cc1-c1cnc2c(c1)N1CCOC[C@H]1C[C@H]2O` [Example 150, 2-(2-cyanopropan-2-yl)-N-(3-((4aR,6R)-6-hydroxy-1,2,4,4a,5,6-hexahydro-[1,4]oxazino[4,3-a][1,5]naphthyridin-9-yl)-4-methylphenyl)isonicotinamide], the half-inhibitory concentration (IC50) is 0.079 nM.
In the case of `Cc1ccc(NC(=O)c2ccnc(C(C)(C)C#N)c2)cc1-c1cnc2c(c1)N1CCOC[C@@H]1C[C@@H]2O` [Example 151, 2-(2-cyanopropan-2-yl)-N-(3-((4aS,6S)-6-hydroxy-1,2,4,4a,5,6-hexahydro-[1,4]oxazino[4,3-a][1,5]naphthyridin-9-yl)-4-methylphenyl)isonicotinamide] it was 0.014 nM.
In the case of `Cc1ccc(NC(=O)c2ccnc(C(F)(F)F)c2)cc1-c1cnc2c(c1)N1CCOC[C@H]1C1(COC1)C2` [Example 154, (R)-N-(4-methyl-3-(1′,2′,4′,4a′-tetrahydro-6′H-spiro[oxetane-3,5′-[1,4]oxazino[4,3-a][1,5]naphthyridin]-9′-yl)phenyl)-2-(trifluoromethyl)isonicotinamide] it was 0.063 nM.
In the case of `Cc1ccc(NC(=O)c2ccnc(C(F)(F)F)c2)cc1-c1cnc2c(c1)N1CCOC[C@@H]1C1(COC1)C2` [Example 155, (S)-N-(4-methyl-3-(1′,2′,4′,4a′-tetrahydro-6′H-spiro[oxetane-3,5′-[1,4]oxazino[4,3-a][1,5]naphthyridin]-9′-yl)phenyl)-2-(trifluoromethyl)isonicotinamide] it was 0.36 nM.
`Cc1ccc(NC(=O)c2ccnc(C(C)(F)F)c2)cc1-c1cnc2c(c1)N1CCOC[C@H]1C(C)(C)[C@H]2O` [Example 161, 2-(1,1-difluoroethyl)-N-(3-((4aR,6R)-6-hydroxy-5,5-dimethyl-1,2,4,4a,5,6-hexahydro-[1,4]oxazino[4,3-a][1,5]naphthyridin-9-yl)-4-methylphenyl)isonicotinamide] registered an IC50 of 0.08 nM.
With `Cc1ccc(NC(=O)c2ccnc(C(C)(F)F)c2)cc1-c1cnc2c(c1)N1CCOC[C@@H]1C(F)(F)[C@@H]2O` [Example 162, N-(3-((4aR,6R)-5,5-difluoro-6-hydroxy-1,2,4,4a,5,6-hexahydro-[1,4]oxazino[4,3-a][1,5]naphthyridin-9-yl)-4-methylphenyl)-2-(1,1-difluoroethyl)isonicotinamide] the figure was 0.093 nM.
In the case of `Cc1ccc(NC(=O)c2ccnc(C(C)(F)F)c2)cc1-c1cnc2c(c1)N1CCOC[C@H]1C(F)(F)[C@H]2O` [Example 164, N-(3-((4aS,6S)-5,5-difluoro-6-hydroxy-1,2,4,4a,5,6-hexahydro-[1,4]oxazino[4,3-a][1,5]naphthyridin-9-yl)-4-methylphenyl)-2-(1,1-difluoroethyl)isonicotinamide] it was 0.43 nM.
With `Cc1ccc(NC(=O)c2ccnc(C(C)(F)F)c2)cc1-c1cnc2c(c1)N1CCOC[C@@H]1C(F)(F)[C@@H]2O` [Example 165, N-(3-((4aR,6R)-5,5-difluoro-6-hydroxy-1,2,4,4a,5,6-hexahydro-[1,4]oxazino[4,3-a][1,5]naphthyridin-9-yl)-4-methylphenyl)-2-(1,1-difluoroethyl)isonicotinamide] the figure was 0.62 nM.

Source of the values: US10377770B2 (Novartis AG, priority 2015, dated 2019).
